Reference: patent US6558650B1, “Enhancement of cellular gallium uptake” (Oregon Health and Science University, priority 1998, dated 2003)

Assays:
[1] = tested on: TfR− and TfR+ cells (Chinese Hamster Ovary); experiment: Cellular uptake of Ga-67, text statements that do not separate TfR− and TfR+ cells; format: cell-based
Excerpt: (§1) A pair of transfected Chinese Hamster Ovary cells lines were used to compare, in a controlled manner, the Tf-dependent and Tf-independent systems for the uptake of Ga-67.
(§2) The two cell lines are identical except that TfR-cells express no TfR, and TfR+ cells over-express the transfected human TfR constitutively. This means that expression of the TfR is independent of cell growth or iron content, which could alter the cells matabolically in many ways that may confound a well-controlled experimental determination of cause and effect. TfR− and TfR+ cells were grown in monolayer and maintained as previously described (37).
The tube was placed on its side on the surface of a cool, daylight color-balanced, fluorescent light box (Just Normlicht).
The temperature at the surface of the light box was 29° C. for the fluorescent light box, and 37° C. for the UV light box. The PDN was added to 10 ml of incubation solution (below) to achieve concentrations ranging from 0.25 μM to 100 μM. Each 10 ml sample of incubation solution contained an equal quantity of ethanol (approximately 100 µl per 10 ml), including the controls.
Following growth of cells in 25 cm^2 flasks to subconfluence, monolayers of cultured cells were first washed, and then pre-incubated for 2 hours at 37° C. with 5 ml serum-free Dulbecco's Modified Essential Medium (DMEM) to deplete the cells of Tf. The pre-incubation medium was then removed and replaced by 1.5 ml of the incubation solution containing 10 uCi/ml carrier-free Ga-67 citrate (Mallinckrodt) in Hank's Balanced Salt solution (HBSS), pre-warmed to 37° C. The concentration of Ga-67 in the incubation solution was approximately 0.25 nM. The HBSS, pH 7.2-7.4, contained 3.7 g/L NaHCO3, 1 mM CaCl2, and 1 mM magnesium salts. Cells were incubated in the PDN- and Ga-67-containing solutions in a CO2 incubator at 37° C. for intervals ranging from 10 seconds to 90 minutes. All experiments were conducted in the dark.
Following incubation of cells with Ga-67, the flasks were immediately placed on ice. The radioactive material was removed by aspiration with a Pasteur pipette attached to water suction. The monolayers were washed 3 times with 5 ml each ice cold HBSS. Cells were washed once with phosphate-buffered saline (PBS), pre-warmed to 37° C. The PBS was removed and the cellular monolayer overlaid with 1.5 ml 0.25% trypsin containing 1 mM EDTA. The trypsin was immediately removed and the cells were incubated briefly (1 minute) at 37° C. The cells in each flask were then dislodged by several gentle mechanical blows to the side of the flask and collected in 200 μl ice cold PBS.
By a modification of a method previously published for radiolabeling of protozoan parasites (38), the cells were then separated from unbound contaminating radioactivity. The 200 μl of cells in PBS were layered gently over 200 μl of an 8.5:1.5 ratio of dibutylpthalate:liquid paraffin oil in a 1.5 ml microfuge tube. With care not to agitate the mixture, the tubes were than centrifuged at 12,000 rpm for 2 minutes in a microfuge. The supernatant and the oil was then aspirated carefully from the top of the tube with a Pasteur pipette attached to water suction. The bottom of the microfuge tube, containing the cell pellet (typical pellet volume˜100 μl), was then clipped with a microfuge tube clipper into a counting vial containing 900 μl of a solution of 200 mM NaOH. 1% SDS. The cell pellet was dissolved in this solution. The content of radioactivity in the samples was determined by a gamma well counting (Packard) in comparison to standard dilutions of the original Ga-67 incubation solution.
Protein assays were performed on the solubilized cell samples by formation of a cuprous bicinchonicic acid complex using a spectrophotometric microtiter plate reader (Dynatech) (39). The method and reagents used are supplied in a kit (Pierce) and were performed according to the manufacturer's directions.

[2] = tested on: TfR+ cells (transfected Chinese Hamster Ovary cells over-expressing human TfR); settings: 0.5 h, 25 µM
Excerpt: as §1, §2
(§3) The tube was placed on its side on the surface of a cool, daylight color-balanced, fluorescent light box (Just Normlicht). […]
(§4) The temperature at the surface of the light box was 29° C. for the fluorescent light box, and 37° C. for the UV light box. […] Each 10 ml sample of incubation solution contained an equal quantity of ethanol (approximately 100 µl per 10 ml), including the controls. […]
(§5) By a modification of a method previously published for radiolabeling of protozoan parasites (38), the cells were then separated from unbound contaminating radioactivity. […] The content of radioactivity in the samples was determined by a gamma well counting (Packard) in comparison to standard dilutions of the original Ga-67 incubation solution. […]

[3] = tested on: TfR− cells (transfected Chinese Hamster Ovary cells expressing no TfR); settings: 0.5 h, 25 µM
Excerpt: as §1, §2, §3, §4, §5

[4] = oral; cited from earlier work
[5] = tested on: nucleated rabbit erythrocytes; settings: isolated nitroso-derivative compared with crude photo-degraded nifedipine (44); cited from earlier work

SMILES | effect on Ga-67 uptake ([1]; light-protected compound) | effect on Ga-67 uptake ([1]; photo-irradiated compound) | further results
COC(=O)C1=C(C)NC(C)=C([N+](=O)[O-])C1c1ccccc1C(F)(F)F (centres unmarked) [BAY K 8644] | None of the light-protected or photo-irradiated compounds had an effect | None of the light-protected or photo-irradiated compounds had an effect | –
COC(=O)C1=C(C)NC(C)=C(C(=O)OC)C1c1ccccc1[N+](=O)[O-] [Nifedipine, dimethyl 1,4-dihydro-2,6-dimethyl-4-(2-nitrophenyl)-3,5-pyridinedicarboxylate] | – | – | fmoles Ga-67/mg Total Cellular Protein, TfR+ cells [2]: 0.296 fmoles Ga-67/mg Total Cellular; fmoles Ga-67/mg Total Cellular Protein, TfR− cells [3]: .171 fmoles Ga-67/mg Total Cellular; time to peak plasma levels post ingestion [4]: approximately 30 minutes
CC(=O)c1c(C)nc(C)c(C(C)=O)c1-c1ccccc1N=O [nitroso-derivative, 2,6-dimethyl-3,5-diacetyl-4-(2′-nitrosophenyl)-pyridine] | – | – | gallium uptake (inferred from conditions that correlate with presence of the nitroso-derivative) ([1]; not tested in isolation, inferred from Example 3 data): enhances gallium uptake; pharmacological action in enhancing the uptake of Fe^2+ [5]: same pharmacological action as “crude” photo-degraded nifedipine
COc1ccc(CCN(C)CCCC(C#N)(c2ccc(OC)c(OC)c2)C(C)C)cc1OC (centres unmarked) [verapamil] | None of the light-protected or photo-irradiated compounds had an effect | None of the light-protected or photo-irradiated compounds had an effect | –
COc1ccc([C@@H]2Sc3ccccc3N(CCN(C)C)C(=O)[C@@H]2OC(C)=O)cc1 [diltiazem] | None of the light-protected or photo-irradiated compounds had an effect | None of the light-protected or photo-irradiated compounds had an effect | –
